Patent US8853141B2, “Sulfomethylsuccinates, process for making same and compositions containing same” (Stepan Company, priority 2009, dated 2014)

Test: Surface activity, K12 Krüss tensiometer, automatic titration for CMC
Format: physicochemical
Method: Surface activity was measured with a K12 Krüss tensiometer at 25° C. in deionized water. Automatic titration was used to determine the critical micelle concentration (CMC). No pH adjustment was made for the measurement.

critical micelle concentration (CMC): about 120 mg/L
Substance: dodecyl sulfosuccinate
